In patent publication US20040220115A1, “Medicinal compositions and their method of preparation” (priority 1999, published 2004):

Experiments:
murine sarcoma 180 = conditions: cited from earlier work
[1] = Degradation of stored BEC extract, solamargine and solasonine levels by HPLC; assay type: physicochemical; conditions: for % degradation estimated: four weeks storage under ambient conditions, estimated from the degradation study
From the text: A BEC extract was obtained from Solanum Sodomaeum according to conventional extraction procedures. The degradation of the BEC extract was estimated by measuring the change in solamargine and solasonine levels over time. Although degradation of BEC could also be measured by an increase in sugar levels, in practice HPLC analysis for solamargine and solasonine allowed a more quantative analysis to be conducted and was therefore chosen for this study.

[2] = test system: human ovarian cancer cells; test: Effect of washed and unwashed BEC on human ovarian cancer cells; assay type: cell-based
Procedure: The effect of washed and unwashed BEC or human ovarian cancer cells was compared. The washed and unwashed BEC were prepared as described for Example 8.
Cells (5×10^4) were transferred (200 μl chamber of a microscope slide (Lab Tek Miles Scientific). Controls received 50 μl HIFCS/TCM and experimental chambers 50 μl of solasodine glycosides (BEC) 1.5-3.8 μM/L, washed and unwashed after 7-h preincubation and incubated for a further 17 h and […] preincubation and incubated for a further 3h. Similarly, the cells were treated with the aglycone solasodine 19.4-96.8 μM/L. The cells were fixed and examined by the Papanicolaou method.

[3] = Time 0 years storage of BEC extract

SMILES | effect on S180 activity (murine sarcoma 180; similar concentrations of rhamnose in the absence of BEC) | Degradation (%) mean ± S.D. [1, 3] | Degradation (%) mean ± S.D. ([1]; Time 0.5 years) | Degradation (%) mean ± S.D. ([1]; Time 1 year) | Degradation (%) mean ± S.D. ([1]; Time 2 years) | Degradation (%) mean ± S.D. ([1]; Time 3 years) | Degradation (%) mean ± S.D. ([1]; Time 4 years) | Degradation (%) mean ± S.D. ([1]; Time 5 years) | % degradation estimated [1] | effect against tumor cells (murine sarcoma 180; administered at levels at which BEC is effective) | % survival ([2]; 3 μg/mL) | % survival ([2]; 6 μg/mL) | % survival ([2]; 9 μg/ml) | % survival ([2]; 12 μg/ml) | % survival ([2]; 15 μg/ml) | % survival ([2]; 18 μg/ml) | % survival ([2]; 24 μg/ml)
C[C@H](O)[C@H](O)[C@@H](O)[C@@H](O)C=O [rhamnose] | no effect | – | – | – | – | – | – | – | – | – | – | – | – | – | – | – | –
C[C@@H]1CC[C@@]2(NC1)O[C@H]1C[C@H]3[C@@H]4CC=C5C[C@@H](O[C@@H]6O[C@H](CO)[C@@H](O[C@@H]7O[C@@H](C)[C@H](O)[C@@H](O)[C@H]7O)[C@H](O)[C@H]6O[C@@H]6O[C@@H](C)[C@H](O)[C@@H](O)[C@H]6O)CC[C@]5(C)[C@H]4CC[C@]3(C)[C@H]1[C@@H]2C [Solamargine, (22R,25R)-spiro-5-en-3β-yl-α-L-rhamnopyranosyl-(1->2glu)-O-α-L-rhamnopyranosyl-(1->4glu)-β-D-gluco-pyranose] | – | 0% | 4 ± 4% | 8 ± 5% | 12 ± 7% | 15 ± 8% | 19 ± 10% | 22 ± 10% | less than 4% | – | – | – | – | – | – | – | –
C[C@@H]1CC[C@@]2(NC1)O[C@H]1C[C@H]3[C@@H]4CC=C5C[C@@H](O)CC[C@]5(C)[C@H]4CC[C@]3(C)[C@H]1[C@@H]2C [Solasodine, solasodine] | – | – | – | – | – | – | – | – | – | ineffective | 100% | 100% | 100% | 100% | 100% | 100% | 100%
C[C@@H]1CC[C@@]2(NC1)O[C@H]1C[C@H]3[C@@H]4CC=C5C[C@@H](O[C@@H]6O[C@H](CO)[C@H](O)[C@H](O[C@@H]7O[C@H](CO)[C@@H](O)[C@H](O)[C@H]7O)[C@H]6O[C@@H]6O[C@@H](C)[C@H](O)[C@@H](O)[C@H]6O)CC[C@]5(C)[C@H]4CC[C@]3(C)[C@H]1[C@@H]2C [Solasonine, (22R, 25R)-spiro-5-en-3β-yl-α-L-rhamnopyranosyl-(1->2gal)-O-β-D-glucopyranosyl-(1->3gal)-β-D-galactopyranose] | – | 0% | 5 ± 5% | 10 ± 5% | 15 ± 8% | 19 ± 9% | 21 ± 10% | 23 ± 11% | < 5% | – | – | – | – | – | – | – | –
